From publication PMC10272180, “Ancient medicinal plant rosemary contains a highly efficacious and isoform-selective KCNQ potassium channel opener” (Communications Biology, 2023)

Key:
Format in all cases: cell-based
[1] = molecular target: T1, KCNQ2/3 (Homo sapiens, UniProt O43525+O43526); test: TEVC of KCNQ2/3 heteromers expressed in Xenopus laevis oocytes
T1 construct: expressed in transfected cells; host or cells: Xenopus laevis oocytes co-injected with cRNAs
Description: (§1) We generated cRNA transcripts encoding human KCNQ1, 2, 3, and 5 (wild-type and mutant) by in vitro transcription using the mMessage mMachine kit (Thermo Fisher Scientific, Waltham, MA, USA) according to manufacturer’s instructions, after vector linearization, from cDNA sub-cloned into expression vectors (pTLNx and pXOOM) incorporating Xenopus laevis β-globin 5’ and 3’ UTRs flanking the coding region to enhance translation and cRNA stability. Mutant KCNQ cDNAs were generated by Genscript (Piscataway, NJ, USA) and cRNAs made as above. We injected defolliculated stage V and VI Xenopus laevis oocytes (Xenoocyte, Dexter, MI, USA) with KCNQ cRNAs (2–10 ng) and incubated the oocytes at 16 °C in ND96 oocyte storage solution containing penicillin and streptomycin, with daily washing, for 2–4 days prior to two-electrode voltage-clamp (TEVC) recording.
We placed oocytes in a small-volume oocyte bath (Warner) and viewed them with a dissection microscope for cellular electrophysiology. We sourced chemicals from Sigma-Aldrich (St. Louis, MO, USA) and Combi-Blocks (San Diego, CA, USA). We studied effects of Salvia rosmarinus extracts and of compounds, solubilized directly in bath solution (in mM): 96 NaCl, 4 KCl, 1 MgCl2, 1 CaCl2, 10 HEPES (pH 7.6). We introduced extracts or compounds into the oocyte recording bath by gravity perfusion at a constant flow of 1 ml per minute for 3 min prior to recording. Pipettes were of 1-2 MΩ resistance when filled with 3 M KCl. […] We analyzed data using Clampfit (Molecular Devices) and Graphpad Prism software (GraphPad, San Diego, CA, USA), stating values as mean ± SEM. We plotted raw or normalized tail currents versus prepulse voltage and fitted with a single Boltzmann function:1 g=(A1−A2)/1+exp[V1/2−V/Vs]y+A2 where g is the normalized tail conductance, A1 is the initial value at -∞, A2 is the final value at +∞, V1/2 is the half-maximal voltage of activation and Vs the slope factor. We fitted activation and deactivation kinetics with single exponential functions.

[2] = molecular target: KCNQ3*-P211A (Homo sapiens, UniProt O43525, A315T/P211A); test: TEVC of mutant KCNQ3*-P211A in oocytes
Description: as §1
(§2) We performed TEVC at room temperature using an OC-725C amplifier (Warner Instruments, Hamden, CT, USA) and pClamp10 software (Molecular Devices, Sunnyvale, CA, USA) 2–4 days after cRNA injection. We placed oocytes in a small-volume oocyte bath (Warner) and viewed them with a dissection microscope for cellular electrophysiology. We sourced chemicals from Sigma-Aldrich (St. Louis, MO, USA) and Combi-Blocks (San Diego, CA, USA). We studied effects of Salvia rosmarinus extracts and of compounds, solubilized directly in bath solution (in mM): 96 NaCl, 4 KCl, 1 MgCl2, 1 CaCl2, 10 HEPES (pH 7.6). We introduced extracts or compounds into the oocyte recording bath by gravity perfusion at a constant flow of 1 ml per minute for 3 min prior to recording. Pipettes were of 1-2 MΩ resistance when filled with 3 M KCl. We recorded currents in response to voltage pulses between −120 mV and +40 mV at 10 mV intervals from a holding potential of −80 mV, to yield current-voltage relationships and examine activation kinetics. We analyzed data using Clampfit (Molecular Devices) and Graphpad Prism software (GraphPad, San Diego, CA, USA), stating values as mean ± SEM. We plotted raw or normalized tail currents versus prepulse voltage and fitted with a single Boltzmann function:1 g=(A1−A2)/1+exp[V1/2−V/Vs]y+A2 where g is the normalized tail conductance, A1 is the initial value at -∞, A2 is the final value at +∞, V1/2 is the half-maximal voltage of activation and Vs the slope factor. We fitted activation and deactivation kinetics with single exponential functions.

[3] = molecular target: KCNQ3*-G245A (Homo sapiens, UniProt O43525, A315T/G245A); test: TEVC of mutant KCNQ3*-G245A in oocytes; settings: 100 µM
Description: as §1
We performed TEVC at room temperature using an OC-725C amplifier (Warner Instruments, Hamden, CT, USA) and pClamp10 software (Molecular Devices, Sunnyvale, CA, USA) 2–4 days after cRNA injection. […] We recorded currents in response to voltage pulses between −120 mV and +40 mV at 10 mV intervals from a holding potential of −80 mV, to yield current-voltage relationships and examine activation kinetics. We analyzed data using Clampfit (Molecular Devices) and Graphpad Prism software (GraphPad, San Diego, CA, USA), stating values as mean ± SEM. […]

[4] = molecular target: KCNQ3*-W265L (Homo sapiens, UniProt O43525, A315T/W265L); test: TEVC of mutant KCNQ3*-W265L in oocytes
Description: as §1
as §2, with “We recorded currents in response to voltage pulses between −120 mV and +40 mV at 10 mV intervals from a holding potential of −80 mV, to yield current-voltage relationships and examine activation kinetics.” left out

[5] = molecular target: KCNQ5 (Homo sapiens, UniProt Q9NR82); test: TEVC of KCNQ5 homomers expressed in Xenopus laevis oocytes
Description: as §1, §2

Q: How did the “V0.5 Normalized tail current” value ([1]; 0.1 µM) turn out when `CC(C)c1cc2c(c(O)c1O)[C@@]1(C(=O)O)CCCC(C)(C)[C@@H]1CC2` [Carnosic acid, carnosic acid] was run?
A: The value was -44.63 ± 0.46 mV.

Q: And the “V0.5 Normalized tail current” value ([1]; 1 µM)?
A: Its value is -45.44 ± 0.41 mV.

Q: And the “V0.5 Normalized tail current” value ([1]; 3 µM)?
A: Its value is -46.40 ± 0.45 mV.

Q: What about the “V0.5 Normalized tail current” value ([1]; 10 µM) of the same compound?
A: Its value is -47.94 ± 0.61 mV.

Q: And the “V0.5 Normalized tail current” value ([1]; 30 µM)?
A: The value was -49.09 ± 0.55 mV.

Q: And the “V0.5 Normalized tail current” value ([1]; 100 µM)?
A: Its value is -49.95 ± 0.65 mV.

Q: What about the “activity across the concentration range tested” value ([1]; 0.1-100 µM) of the same compound?
A: Its value is “only weakly active”.

Q: What about the “V0.5 Normalized tail current” value ([2]; 0.1 µM) of the same compound?
A: The value was -55.16 ± 1.00 mV.

Q: What about the “V0.5 Normalized tail current” value ([2]; 1 µM) of the same compound?
A: Its value is -59.20 ± 1.17 mV.

Q: What about the “V0.5 Normalized tail current” value ([2]; 3 µM) of the same compound?
A: The value was -61.55 ± 1.44 mV.

Q: And the “V0.5 Normalized tail current” value ([2]; 10 µM)?
A: Its value is -78.35 ± 1.93 mV.

Q: And the “V0.5 Normalized tail current” value ([2]; 30 µM)?
A: The value was -98.23 ± 4.44 mV.

Q: And the “V0.5 Normalized tail current” value ([2]; 100 µM)?
A: Its value is -110.7 ± 3.83 mV.

Q: What about the EC50 ([2]; EC50 EM) of the same compound?
A: Its EC50 is 3.21 ± 0.21 µM.

Q: What about the EC50 ([2]; EC50 V0.5 Activation) of the same compound?
A: The EC50 was 15.25 ± 0.07 µM.

Q: And the “carnosic acid efficacy and potency compared with KCNQ3*” value ([2]; dose-response)?
A: Its value is “very similarly”.

Q: What about the Slope [3] of the same compound?
A: The Slope was 12.79 ± 4.65 mV.

Q: What about the “V0.5 Normalized tail current” value [3] of the same compound?
A: The value was -129.4 ± 1.24 mV.

Q: What about the “V0.5 Normalized tail current” value ([4]; 0.1 µM) of the same compound?
A: Its value is -75.60 ± 1.02 mV.

Q: And the “V0.5 Normalized tail current” value ([4]; 1 µM)?
A: Its value is -86.19 ± 1.09 mV.

Q: And the “V0.5 Normalized tail current” value ([4]; 3 µM)?
A: The value was -96.66 ± 1.64 mV.

Q: And the “V0.5 Normalized tail current” value ([4]; 10 µM)?
A: The value was -105.3 ± 2.56 mV.

Q: And the “V0.5 Normalized tail current” value ([4]; 100 µM)?
A: Its value is -146.0 ± 1.92 mV.

Q: What about the EC50 ([4]; EC50 EM) of the same compound?
A: Its EC50 is 0.14 ± 0.03 µM.

Q: What about the EC50 ([4]; EC50 V0.5 Activation) of the same compound?
A: Its EC50 is 2.11 ± 0.09 µM.

Q: And the “sensitivity in terms of potency versus KCNQ3*” value ([4]; dose-response)?
A: The value was “approximately fivefold”.

Q: And the “V0.5 Normalized tail current” value ([5]; 0.1 µM)?
A: Its value is -42.57 ± 0.34 mV.

Q: What about the “V0.5 Normalized tail current” value ([5]; 1 µM) of the same compound?
A: The value was -42.20 ± 0.27 mV.

Q: And the “V0.5 Normalized tail current” value ([5]; 3 µM)?
A: The value was -42.54 ± 0.31 mV.

Q: What about the “V0.5 Normalized tail current” value ([5]; 10 µM) of the same compound?
A: The value was -43.64 ± 0.36 mV.

Q: What about the “V0.5 Normalized tail current” value ([5]; 30 µM) of the same compound?
A: Its value is -45.91 ± 0.40 mV.

Q: And the “V0.5 Normalized tail current” value ([5]; 100 µM)?
A: The value was -50.99 ± 0.49 mV.

Q: What about the “constitutively activated current at −120 mV” value ([5]; 100 µM) of the same compound?
A: The value was ~ 5%.

Q: What about the EC50 ([5]; EC50 EM) of the same compound?
A: Its EC50 is 43.4 ± 0.28 µM.

Q: And the EC50 ([5]; EC50 V0.5 Activation)?
A: The EC50 was 231 ± 75 µM.
